Laboratory results taken from ChEMBL document CHEMBL5291721, “A preclinical secondary pharmacology resource illuminates target-adverse drug reaction associations of marketed drugs” (Nat Commun, 2023).

Assays:
[1] = molecular target: Beta-2 adrenergic receptor (Homo sapiens, UniProt P07550); type: functional, cell-based
[2] = molecular target: Cannabinoid receptor 1 (Homo sapiens, UniProt P21554)
[3] = molecular target: Adenosine receptor A2a (Homo sapiens, UniProt P29274)
[4] = molecular target: 3',5'-cyclic-AMP phosphodiesterase 4D (Homo sapiens, UniProt Q08499); type: functional
[5] = molecular target: D(1A) dopamine receptor (Homo sapiens, UniProt P21728); type: functional, cell-based
[6] = molecular target: T1, Endothelin receptor type B (Homo sapiens, UniProt P24530)
T1 sequence (P24530 whole entry): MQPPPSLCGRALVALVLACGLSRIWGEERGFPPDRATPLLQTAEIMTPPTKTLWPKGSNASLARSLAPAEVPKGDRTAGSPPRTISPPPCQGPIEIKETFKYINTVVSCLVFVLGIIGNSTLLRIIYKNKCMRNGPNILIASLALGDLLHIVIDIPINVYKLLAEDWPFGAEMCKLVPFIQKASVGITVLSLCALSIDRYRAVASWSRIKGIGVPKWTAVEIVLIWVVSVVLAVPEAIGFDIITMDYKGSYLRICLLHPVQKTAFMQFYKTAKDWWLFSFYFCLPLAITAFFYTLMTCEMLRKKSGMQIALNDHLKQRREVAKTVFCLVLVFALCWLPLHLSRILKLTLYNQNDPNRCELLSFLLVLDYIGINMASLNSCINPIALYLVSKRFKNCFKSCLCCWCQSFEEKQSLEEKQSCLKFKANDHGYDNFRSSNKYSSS

[7] = molecular target: Histamine H3 receptor (Homo sapiens, UniProt Q9Y5N1)
[8] = molecular target: Melanocortin receptor 3 (Homo sapiens, UniProt P41968)
[9] = molecular target: T2, Adenosine receptor A1 (Homo sapiens, UniProt P30542)
T2 sequence (P30542 whole entry): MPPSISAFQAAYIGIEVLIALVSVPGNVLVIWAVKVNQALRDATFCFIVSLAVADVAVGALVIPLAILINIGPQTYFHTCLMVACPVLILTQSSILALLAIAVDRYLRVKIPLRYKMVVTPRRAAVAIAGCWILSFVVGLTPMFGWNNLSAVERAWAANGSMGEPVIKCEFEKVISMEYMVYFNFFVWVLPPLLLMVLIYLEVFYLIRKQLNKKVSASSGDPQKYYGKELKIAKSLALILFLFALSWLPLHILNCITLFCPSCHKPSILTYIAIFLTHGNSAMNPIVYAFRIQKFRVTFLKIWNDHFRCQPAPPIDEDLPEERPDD

[10] = molecular target: 5-hydroxytryptamine receptor 2B (Homo sapiens, UniProt P41595); type: functional, cell-based
[11] = molecular target: T3, 5-hydroxytryptamine receptor 1A (Homo sapiens, UniProt P08908); type: functional, cell-based
T3 sequence (P08908 whole entry): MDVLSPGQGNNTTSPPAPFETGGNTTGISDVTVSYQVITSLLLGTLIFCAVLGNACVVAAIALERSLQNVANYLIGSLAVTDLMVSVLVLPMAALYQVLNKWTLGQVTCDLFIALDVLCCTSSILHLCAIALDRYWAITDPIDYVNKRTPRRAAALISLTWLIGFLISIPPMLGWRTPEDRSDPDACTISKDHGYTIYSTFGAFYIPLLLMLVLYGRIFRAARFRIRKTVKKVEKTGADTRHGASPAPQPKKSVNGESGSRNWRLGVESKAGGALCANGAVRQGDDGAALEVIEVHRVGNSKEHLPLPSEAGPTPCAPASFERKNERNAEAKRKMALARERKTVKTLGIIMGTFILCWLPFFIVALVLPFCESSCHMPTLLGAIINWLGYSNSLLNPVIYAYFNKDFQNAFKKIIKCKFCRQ

[12] = molecular target: T4, Gastrin/cholecystokinin type B receptor (Homo sapiens, UniProt P32239)
T4 sequence (P32239 whole entry): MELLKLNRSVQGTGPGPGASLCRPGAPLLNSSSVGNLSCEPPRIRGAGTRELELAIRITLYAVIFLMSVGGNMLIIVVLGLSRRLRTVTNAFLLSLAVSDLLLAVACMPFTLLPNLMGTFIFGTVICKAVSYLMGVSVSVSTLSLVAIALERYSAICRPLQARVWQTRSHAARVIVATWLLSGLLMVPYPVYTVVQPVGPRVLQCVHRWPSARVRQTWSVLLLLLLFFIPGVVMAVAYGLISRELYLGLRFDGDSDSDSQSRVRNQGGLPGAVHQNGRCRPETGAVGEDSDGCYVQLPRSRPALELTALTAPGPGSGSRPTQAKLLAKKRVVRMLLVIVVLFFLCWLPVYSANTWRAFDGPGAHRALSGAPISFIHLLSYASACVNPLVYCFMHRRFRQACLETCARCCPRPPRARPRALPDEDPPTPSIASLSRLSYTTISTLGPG

[13] = molecular target: T5, Estrogen receptor (Homo sapiens, UniProt P03372)
T5 sequence (P03372 whole entry): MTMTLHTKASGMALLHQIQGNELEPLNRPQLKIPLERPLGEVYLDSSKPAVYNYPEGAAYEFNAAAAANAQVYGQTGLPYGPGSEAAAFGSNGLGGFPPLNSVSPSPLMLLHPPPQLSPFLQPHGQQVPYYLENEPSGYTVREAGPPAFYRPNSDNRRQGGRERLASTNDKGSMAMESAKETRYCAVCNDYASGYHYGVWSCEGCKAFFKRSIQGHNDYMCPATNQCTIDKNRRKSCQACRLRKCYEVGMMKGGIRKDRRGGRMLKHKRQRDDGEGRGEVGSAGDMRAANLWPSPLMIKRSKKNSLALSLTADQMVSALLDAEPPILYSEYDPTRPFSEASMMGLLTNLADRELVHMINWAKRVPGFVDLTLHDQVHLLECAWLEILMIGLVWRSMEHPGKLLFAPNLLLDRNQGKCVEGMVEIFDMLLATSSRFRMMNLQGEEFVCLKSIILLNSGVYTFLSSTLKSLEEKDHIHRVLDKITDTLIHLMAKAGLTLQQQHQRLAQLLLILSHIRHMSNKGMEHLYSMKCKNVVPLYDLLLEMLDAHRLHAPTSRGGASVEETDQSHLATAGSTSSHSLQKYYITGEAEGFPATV

[14] = molecular target: 5-hydroxytryptamine receptor 2A (Homo sapiens, UniProt P28223); type: functional, cell-based
Also: assay procedure not described here.

Cannabinoid receptor 1, sequence (P21554 whole entry): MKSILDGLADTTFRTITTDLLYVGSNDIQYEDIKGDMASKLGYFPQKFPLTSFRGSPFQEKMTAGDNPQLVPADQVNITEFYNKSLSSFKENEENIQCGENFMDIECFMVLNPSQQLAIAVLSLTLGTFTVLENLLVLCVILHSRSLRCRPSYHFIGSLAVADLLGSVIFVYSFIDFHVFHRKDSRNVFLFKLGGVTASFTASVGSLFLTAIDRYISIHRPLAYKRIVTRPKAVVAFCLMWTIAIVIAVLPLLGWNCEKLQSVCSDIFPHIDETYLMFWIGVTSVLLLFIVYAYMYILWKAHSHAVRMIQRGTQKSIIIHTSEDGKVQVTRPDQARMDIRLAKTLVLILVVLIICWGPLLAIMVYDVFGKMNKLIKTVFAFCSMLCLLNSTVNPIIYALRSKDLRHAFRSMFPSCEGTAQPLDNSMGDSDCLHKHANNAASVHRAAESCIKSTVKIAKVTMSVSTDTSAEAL
5-hydroxytryptamine receptor 2A, sequence (P28223 whole entry): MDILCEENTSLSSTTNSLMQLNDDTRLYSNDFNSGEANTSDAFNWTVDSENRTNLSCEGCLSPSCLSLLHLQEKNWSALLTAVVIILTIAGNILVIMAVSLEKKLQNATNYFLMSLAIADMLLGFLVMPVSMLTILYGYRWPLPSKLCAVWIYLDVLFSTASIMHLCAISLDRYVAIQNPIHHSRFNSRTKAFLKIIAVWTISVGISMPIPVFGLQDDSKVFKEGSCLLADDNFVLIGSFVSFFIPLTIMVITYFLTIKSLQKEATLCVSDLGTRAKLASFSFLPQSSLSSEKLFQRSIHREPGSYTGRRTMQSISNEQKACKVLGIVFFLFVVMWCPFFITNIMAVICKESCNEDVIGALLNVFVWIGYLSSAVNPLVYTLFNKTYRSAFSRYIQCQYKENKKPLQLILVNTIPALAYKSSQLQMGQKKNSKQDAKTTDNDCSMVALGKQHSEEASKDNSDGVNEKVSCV
D(1A) dopamine receptor, sequence (P21728 whole entry): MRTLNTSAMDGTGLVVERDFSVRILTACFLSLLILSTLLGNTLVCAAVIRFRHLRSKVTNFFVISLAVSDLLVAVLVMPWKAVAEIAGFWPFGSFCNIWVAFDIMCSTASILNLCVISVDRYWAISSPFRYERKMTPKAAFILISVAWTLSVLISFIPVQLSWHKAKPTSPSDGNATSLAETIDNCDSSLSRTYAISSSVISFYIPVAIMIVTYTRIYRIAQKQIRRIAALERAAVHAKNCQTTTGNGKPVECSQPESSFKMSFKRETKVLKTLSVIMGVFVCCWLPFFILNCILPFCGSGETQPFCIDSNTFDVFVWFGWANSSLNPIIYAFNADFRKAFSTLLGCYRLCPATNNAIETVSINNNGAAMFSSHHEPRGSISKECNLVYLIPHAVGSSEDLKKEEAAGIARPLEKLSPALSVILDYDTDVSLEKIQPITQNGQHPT
Beta-2 adrenergic receptor, sequence (P07550 whole entry): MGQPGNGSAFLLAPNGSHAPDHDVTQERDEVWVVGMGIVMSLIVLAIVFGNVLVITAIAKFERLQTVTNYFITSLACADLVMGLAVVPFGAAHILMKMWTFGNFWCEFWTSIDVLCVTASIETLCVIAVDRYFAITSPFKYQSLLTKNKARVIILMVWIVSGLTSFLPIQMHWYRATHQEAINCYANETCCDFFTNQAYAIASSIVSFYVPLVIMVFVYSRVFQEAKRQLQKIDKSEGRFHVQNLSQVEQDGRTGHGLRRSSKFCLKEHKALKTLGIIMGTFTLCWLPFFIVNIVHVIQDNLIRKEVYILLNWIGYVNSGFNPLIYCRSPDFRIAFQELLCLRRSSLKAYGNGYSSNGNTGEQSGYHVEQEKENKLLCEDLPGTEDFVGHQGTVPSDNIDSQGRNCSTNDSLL
Melanocortin receptor 3, sequence (P41968 whole entry): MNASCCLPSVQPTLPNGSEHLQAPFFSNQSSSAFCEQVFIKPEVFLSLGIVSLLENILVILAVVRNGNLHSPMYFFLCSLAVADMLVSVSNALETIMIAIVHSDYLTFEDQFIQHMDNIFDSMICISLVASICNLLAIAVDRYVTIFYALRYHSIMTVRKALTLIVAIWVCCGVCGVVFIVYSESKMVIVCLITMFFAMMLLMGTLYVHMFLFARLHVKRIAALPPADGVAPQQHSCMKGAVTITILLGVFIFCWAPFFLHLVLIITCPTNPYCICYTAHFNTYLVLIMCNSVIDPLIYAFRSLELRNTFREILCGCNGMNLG
Adenosine receptor A2a, sequence (P29274 whole entry): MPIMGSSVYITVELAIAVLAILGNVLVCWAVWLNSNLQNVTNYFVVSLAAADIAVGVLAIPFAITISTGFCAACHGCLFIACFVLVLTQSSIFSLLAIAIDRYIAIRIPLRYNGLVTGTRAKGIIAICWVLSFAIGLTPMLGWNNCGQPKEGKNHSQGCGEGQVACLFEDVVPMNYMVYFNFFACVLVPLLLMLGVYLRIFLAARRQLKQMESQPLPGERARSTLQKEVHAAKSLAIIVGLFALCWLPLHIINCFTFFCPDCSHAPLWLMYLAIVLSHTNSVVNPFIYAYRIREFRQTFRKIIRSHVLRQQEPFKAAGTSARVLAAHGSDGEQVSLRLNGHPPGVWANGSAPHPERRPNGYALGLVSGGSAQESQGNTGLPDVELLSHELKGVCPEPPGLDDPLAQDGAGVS
Histamine H3 receptor, sequence (Q9Y5N1 whole entry): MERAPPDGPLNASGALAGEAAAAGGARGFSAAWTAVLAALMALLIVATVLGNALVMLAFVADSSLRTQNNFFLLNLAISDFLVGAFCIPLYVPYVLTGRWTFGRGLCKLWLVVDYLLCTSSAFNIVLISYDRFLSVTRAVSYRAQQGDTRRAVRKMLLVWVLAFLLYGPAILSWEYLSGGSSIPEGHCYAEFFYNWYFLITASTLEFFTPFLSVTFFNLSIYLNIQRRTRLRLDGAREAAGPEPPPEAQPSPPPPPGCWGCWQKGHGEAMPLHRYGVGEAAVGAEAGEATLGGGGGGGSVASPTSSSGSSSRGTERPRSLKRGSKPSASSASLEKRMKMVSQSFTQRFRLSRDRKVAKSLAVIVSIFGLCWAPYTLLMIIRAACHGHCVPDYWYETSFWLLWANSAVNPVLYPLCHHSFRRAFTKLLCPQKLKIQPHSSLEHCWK
5-hydroxytryptamine receptor 2B, sequence (P41595 whole entry): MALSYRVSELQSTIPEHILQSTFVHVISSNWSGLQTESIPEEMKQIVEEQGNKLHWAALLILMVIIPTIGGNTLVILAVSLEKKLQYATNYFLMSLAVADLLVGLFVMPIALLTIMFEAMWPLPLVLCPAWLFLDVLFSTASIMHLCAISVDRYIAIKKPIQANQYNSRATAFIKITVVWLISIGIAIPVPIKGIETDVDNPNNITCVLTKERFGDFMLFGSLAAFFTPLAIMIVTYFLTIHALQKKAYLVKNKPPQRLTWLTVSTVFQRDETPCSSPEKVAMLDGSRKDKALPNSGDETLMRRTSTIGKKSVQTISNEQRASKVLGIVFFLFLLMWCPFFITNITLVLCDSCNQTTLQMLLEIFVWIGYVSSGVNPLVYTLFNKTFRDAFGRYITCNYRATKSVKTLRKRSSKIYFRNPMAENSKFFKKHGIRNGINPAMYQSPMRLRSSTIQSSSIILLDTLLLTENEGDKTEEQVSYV
3',5'-cyclic-AMP phosphodiesterase 4D, sequence (Q08499 whole entry): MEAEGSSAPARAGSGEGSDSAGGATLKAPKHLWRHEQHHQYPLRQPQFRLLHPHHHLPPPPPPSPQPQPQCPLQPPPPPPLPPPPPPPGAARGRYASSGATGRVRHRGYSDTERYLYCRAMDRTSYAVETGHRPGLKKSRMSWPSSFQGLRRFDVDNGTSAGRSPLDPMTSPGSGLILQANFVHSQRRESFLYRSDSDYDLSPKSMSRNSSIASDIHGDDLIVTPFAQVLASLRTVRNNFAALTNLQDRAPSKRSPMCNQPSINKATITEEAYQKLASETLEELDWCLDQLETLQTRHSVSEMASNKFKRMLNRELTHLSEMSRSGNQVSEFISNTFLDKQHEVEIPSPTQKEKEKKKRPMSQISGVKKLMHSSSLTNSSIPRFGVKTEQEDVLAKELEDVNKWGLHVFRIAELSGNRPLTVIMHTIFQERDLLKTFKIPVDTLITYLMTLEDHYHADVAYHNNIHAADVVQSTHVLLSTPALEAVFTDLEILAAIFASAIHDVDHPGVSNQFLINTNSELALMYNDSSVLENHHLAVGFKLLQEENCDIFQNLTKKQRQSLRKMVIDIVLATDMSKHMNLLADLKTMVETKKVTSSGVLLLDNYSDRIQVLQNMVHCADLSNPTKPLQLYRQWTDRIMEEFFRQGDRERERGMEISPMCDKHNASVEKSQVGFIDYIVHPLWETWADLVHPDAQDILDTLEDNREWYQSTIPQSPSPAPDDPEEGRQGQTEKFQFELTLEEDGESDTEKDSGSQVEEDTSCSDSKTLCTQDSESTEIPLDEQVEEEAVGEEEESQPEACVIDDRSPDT

## O=C1CN=C(c2ccccc2Cl)c2cc([N+](=O)[O-])ccc2N1 [CLONAZEPAM]
[1]
  AC50: > 30 µM
[2]
  AC50: > 10 µM
[3]
  AC50: > 30 µM
[4]
  AC50: > 30 µM
[5]
  AC50: > 10 µM
[6]
  AC50: > 30 µM
[7]
  AC50: > 10 µM
[8]
  AC50: > 30 µM
[9]
  AC50: > 30 µM
[10]
  AC50: > 10 µM
[11]
  AC50: > 10 µM
[12]
  AC50: > 30 µM
[13]
  AC50: > 30 µM

## CC1NCCOC1c1ccccc1 (stereo not drawn) [PHENMETRAZINE]
[1]
  AC50: > 30 µM
[2]
  AC50: > 10 µM
[3]
  AC50: > 30 µM
[14]
  AC50: > 30 µM
[4]
  AC50: > 30 µM
[5]
  AC50: > 10 µM
[6]
  AC50: > 30 µM
[7]
  AC50: > 10 µM
[8]
  AC50: > 30 µM
[9]
  AC50: > 30 µM
[10]
  AC50: 23 µM
[11]
  AC50: > 10 µM
[12]
  AC50: > 30 µM
[13]
  AC50: > 30 µM

## CC(C)(N)Cc1ccccc1 [PHENTERMINE]
[1]
  AC50: > 30 µM
[2]
  AC50: > 10 µM
[3]
  AC50: > 30 µM
[14]
  AC50: > 30 µM
[4]
  AC50: > 30 µM
[5]
  AC50: > 10 µM
[6]
  AC50: > 30 µM
[7]
  AC50: > 10 µM
[8]
  AC50: > 30 µM
[9]
  AC50: > 30 µM
[10]
  AC50: > 10 µM
[11]
  AC50: > 10 µM
[12]
  AC50: > 30 µM
[13]
  AC50: > 30 µM

## CN1C2CCCC1CC(NC(=O)c1nn(C)c3ccccc13)C2 (stereo not drawn) [GRANISETRON]
[1]
  AC50: > 30 µM
[2]
  AC50: > 10 µM
[3]
  AC50: > 30 µM
[4]
  AC50: > 10 µM
[5]
  AC50: > 10 µM
[6]
  AC50: > 30 µM
[7]
  AC50: > 10 µM
[8]
  AC50: > 30 µM
[9]
  AC50: > 30 µM
[10]
  AC50: > 10 µM
[11]
  AC50: > 10 µM
[12]
  AC50: > 30 µM
[13]
  AC50: > 30 µM

## Cc1ccc(-c2ncc(Cl)cc2-c2ccc(S(C)(=O)=O)cc2)cn1 [ETORICOXIB]
[1]
  AC50: > 30 µM
[2]
  AC50: > 10 µM
[3]
  AC50: > 10 µM
[14]
  AC50: > 30 µM
[4]
  AC50: 9 µM
[5]
  AC50: > 10 µM
[6]
  AC50: > 30 µM
[7]
  AC50: > 10 µM
[8]
  AC50: > 10 µM
[9]
  AC50: > 10 µM
[10]
  AC50: > 10 µM
[11]
  AC50: > 10 µM
[12]
  AC50: > 10 µM
[13]
  AC50: > 30 µM

## Cc1nnc2n1-c1ccc(Cl)cc1C(c1ccccc1)=NC2 [ALPRAZOLAM]
[1]
  AC50: > 30 µM
[2]
  AC50: 3.35 µM
[3]
  AC50: > 30 µM
[4]
  AC50: > 30 µM
[5]
  AC50: > 10 µM
[6]
  AC50: > 30 µM
[7]
  AC50: > 10 µM
[8]
  AC50: > 30 µM
[9]
  AC50: > 30 µM
[10]
  AC50: > 10 µM
[11]
  AC50: > 10 µM
[12]
  AC50: > 30 µM
[13]
  AC50: > 30 µM

## CCN(CC)C(C)C(=O)c1ccccc1 (stereo not drawn) [DIETHYLPROPION]
[1]
  AC50: > 30 µM
[2]
  AC50: > 10 µM
[3]
  AC50: > 30 µM
[4]
  AC50: > 30 µM
[5]
  AC50: > 10 µM
[6]
  AC50: > 30 µM
[7]
  AC50: > 10 µM
[8]
  AC50: > 30 µM
[9]
  AC50: > 30 µM
[10]
  AC50: > 10 µM
[11]
  AC50: > 10 µM
[12]
  AC50: > 30 µM
[13]
  AC50: > 30 µM

## Oc1cc(O)c2c(c1)O[C@H](c1ccc(O)c(O)c1)[C@@H](O)C2 [CIANIDANOL]
[1]
  AC50: > 30 µM
[2]
  AC50: > 10 µM
[3]
  AC50: > 30 µM
[14]
  AC50: > 30 µM
[4]
  AC50: > 30 µM
[5]
  AC50: > 10 µM
[6]
  AC50: > 30 µM
[7]
  AC50: > 10 µM
[8]
  AC50: > 30 µM
[9]
  AC50: > 30 µM
[10]
  AC50: > 10 µM
[11]
  AC50: > 10 µM
[12]
  AC50: > 30 µM
[13]
  AC50: > 30 µM
